Results from US9217014B2, “Antifungal agents and uses thereof” (Cidara Therapeutics, Inc., priority 2011, dated 2015).

Assays:
[1] = test system: Candida glabrata; assay: MIC versus a strain of Candida glabrata in 50% human serum; format: cell-based
Protocol: MIC values (μg/mL) of anidulafungin, caspofungin, amphotericin B, compound 1, and compound 16 against various Candida species in the presence and absence of 50% human serum were obtained as follows.
Test organisms were obtained from the American Type Culture Collection (Manassas, Va.). The isolates were maintained at −80° C., then thawed and sub-cultured prior to testing.
The MIC assay method followed the procedure described by the Clinical and Laboratory Standards Institute and employed automated liquid handlers to conduct serial dilutions and liquid transfers. The wells in columns 1-12 in standard 96-well microdilution plates were filled with 150 μL of DMSO. These would become the ‘mother plates’ from which ‘daughter’ or test plates would be prepared. The drugs (150 μL at 80× the desired top concentration in the test plates) were dispensed into the appropriate well in column 1 of the mother plates and mixed. Serial 1:1 dilutions were made through Column 11 in the “mother plate”. The wells of column 12 contained no drug and were the organism growth control wells. […]
Plates were covered with a lid, placed in plastic bags, and incubated at 35° C. The Candida isolates were read after 24 h incubation and again at 48 h. […]
For Candida species, the Minimal Inhibitory Concentration (MIC) was read per CLSI guidelines.

[2] = test system: Aspergillus spp.; assay: MEC and MIC values versus Aspergillus spp.; format: cell-based; conditions: 48 h; presence and absence of 50% human serum
Protocol: MEC and MIC values (μg/mL) of anidulafungin, caspofungin, amphotericin B, compound 1, and compound 16 against various Aspergillus species in the presence and absence of 50% human serum were obtained as follows.
Test organisms were obtained from the American Type Culture Collection (Manassas, Va.). The isolates were maintained at −80° C., then thawed and sub-cultured prior to testing. […]
Standardized inoculum of Aspergillus was prepared per CLSI methods. […] After a short time to allow the heavy particles to settle out, a small quantity of the supernatant was dispensed into RPMI and the suspension adjusted to equal 0.5 McFarland turbidity. […]
Plates were covered with a lid, placed in plastic bags, and incubated at 35° C. The Aspergillus plates were incubated for 48 h before reading. […]
Both an MIC and Minimal Effective Concentration (MEC) value was recorded. […]

SMILES	activity against a strain of Candida glabrata in comparison to anidulafungin [1]	activity against Aspergillus strains relative to anidulafungin (MEC and MIC) [2]
CCCCCOc1ccc(-c2ccc(-c3ccc(C(=O)N[C@H]4C[C@@H](O)C(NCC[N+](C)(C)C)NC(=O)C5[C@@H](O)[C@@H](C)CN5C(=O)C([C@@H](C)O)NC(=O)C([C@H](O)[C@@H](O)c5ccc(O)cc5)NC(=O)C5C[C@@H](O)CC5C(=O)C([C@@H](C)O)NC4=O)cc3)cc2)cc1 (stereo partly shown) [compound 16]	superior activity	retain their activity
CCCCCOc1ccc(-c2ccc(-c3ccc(C(=O)N[C@H]4C[C@@H](O)C(OCC[N+](C)(C)C)NC(=O)C5[C@@H](O)[C@@H](C)CN5C(=O)C([C@@H](C)O)NC(=O)C([C@H](O)[C@@H](O)c5ccc(O)cc5)NC(=O)C5C[C@@H](O)CN5C(=O)C([C@@H](C)O)NC4=O)cc3)cc2)cc1 (stereo partly shown) [compound 1]	superior activity	retain their activity
